Assay: Solubility in the fluorine-containing organic solvent 1,3-bis(trifluoromethyl)benzene (maximum amount giving a homogeneous solution, judged visually)
Settings: 10 ml of 1,3-bis(trifluoromethyl)benzene, 25° C., stirred, visually measured

Structure (SMILES) | solubility in 1,3-bis(trifluoromethyl)benzene
CC1(C)OB(c2cc(B3OC(C)(C)C(C)(C)O3)cc(B3OC(C)(C)C(C)(C)O3)c2)OC1(C)C [1,3,5-tris(4,4,5,5-tetramethyl-1,3,2-dioxaborolan-2-yl)benzene] | 0.20 g/10 ml solvent
OB(O)c1ccc(B(O)O)cc1 [1,4-benzene diboronic acid] | insoluble
CC1(C)OB(c2ccc(B3OC(C)(C)C(C)(C)O3)cc2)OC1(C)C [1,4-bis(4,4,5,5-tetramethyl-1,3,2-dioxaborolan-2-yl)benzene] | 0.17 g/10 ml solvent
CC1(C)OB(c2cc(OCCCC(F)(F)C(F)(F)C(F)(F)C(F)(F)C(F)(F)C(F)(F)F)cc(B3OC(C)(C)C(C)(C)O3)c2)OC1(C)C [Example, 1-(1H,1H,2H,2H,3H,3H-perfluorononane-1-yloxy)-3,5-bis-(4,4,5,5-tetramethyl-1,3,2-dioxaborolan-2-yl)benzene] | 5.0 g/10 ml solvent
